This passage reports IC50 results from ChEMBL document CHEMBL1156346, “Cytotoxic and novel compounds from Solanum indicum” (J Nat Prod, 2001).

This experiment relates to OVCAR-3. As to the kind of experiment: Cytotoxicity against human OVCAR-3 cells. The format is functional, cell-based.

`C=C(C)[C@@H]1CC[C@@]2(C1)C(C)=CC(=O)C[C@H]2C` [SOLAVETIVONE] showed an IC50 of 100 µM.
